This note sets out measurements from PubChem BioAssay (NCI).

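Growth conditions: 96-well plates. Treatment: test compound, 48 hours, 5 concentrations. Analysis: linear interpolation between bracketing concentrations; unreached endpoints set to highest concentration. At the TGI there is no net growth.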 Where only a bound is given, the exact number is not on record here.

Some test systems named below: OVCAR-3 ovarian; HOP-92 NSCLC; HL-60(TB) leukemia; NCI-H522 lung; OVCAR-5 ovarian; SF-295 CNS; CCRF-CEM leukemia; OVCAR-8 ovarian; HCT-15 colon; NCI-H23 lung; RPMI-8226 leukemia; KM12 colon; HCT-116 colon; SN12C renal; MCF7 breast; NCI/ADR-RES ovarian; MDA-MB-231 breast; HS 578T breast; BT-549 breast.
Common to all, as to experiment: NCI tumour cell line growth inhibition, 48 h

For the molecule `Clc1ccc(C2=NOC3C4CCC(C4)C23)cc1` (centres undefined), the TGI with OVCAR-3 ovarian, with HOP-92 NSCLC, with HL-60(TB) leukemia, in the experiment with NCI-H522 lung, in the experiment on OVCAR-5 ovarian and with SF-295 CNS was > 100 µM each time. The TGI with CCRF-CEM leukemia, in the experiment with OVCAR-8 ovarian, in the experiment with HCT-15 colon, in the experiment on NCI-H23 lung, in the experiment with RPMI-8226 leukemia and in the experiment on KM12 colon was > 100 µM throughout. Moreover, the TGI with HCT-116 colon and in the experiment on SN12C renal was > 100 µM throughout.
Turning to `COc1ccc(-c2nc3c(nc2-c2ccc(OC)cc2)N(C)S(=O)(=O)N=C3N)cc1`, the TGI with OVCAR-3 ovarian is 31 µM; in the experiment with HOP-92 NSCLC, 51.6 µM; in the experiment with HL-60(TB) leukemia it was 43.7 µM; in the experiment with NCI-H522 lung, 36 µM; with OVCAR-5 ovarian it was 94.6 µM; in the experiment on SF-295 CNS, 84.3 µM. Also, the TGI is > 100 µM in the experiment on CCRF-CEM leukemia; > 100 µM in the experiment with OVCAR-8 ovarian; > 100 µM with HCT-15 colon; > 100 µM in the experiment with NCI-H23 lung; 40.6 µM with RPMI-8226 leukemia; 92.2 µM with KM12 colon. The TGI in the experiment with HCT-116 colon is 30.7 µM; in the experiment with SN12C renal, > 100 µM.
Regarding `O=C1CCC2(c3ccccc3)Nc3ccc(Cl)cc3N12` (centres undefined), the TGI with OVCAR-3 ovarian, with HOP-92 NSCLC, in the experiment with HL-60(TB) leukemia, with NCI-H522 lung, with OVCAR-5 ovarian and in the experiment on SF-295 CNS was > 100 µM each time. The TGI in the experiment with CCRF-CEM leukemia, in the experiment with OVCAR-8 ovarian, with HCT-15 colon, with NCI-H23 lung, in the experiment with RPMI-8226 leukemia and in the experiment on KM12 colon was > 100 µM throughout. Besides, in the experiment with SN12C renal, the TGI was > 100 µM.
With `CC(C)N(/C(F)=N\C(=O)Nc1ccccc1C(F)(F)F)C(C)C`, the TGI in the experiment with OVCAR-3 ovarian was > 100 µM; in the experiment with HOP-92 NSCLC, 64.2 µM; with HL-60(TB) leukemia, > 100 µM; in the experiment on OVCAR-5 ovarian, > 100 µM; in the experiment on SF-295 CNS, > 100 µM; in the experiment with CCRF-CEM leukemia, > 100 µM. Besides, the TGI with OVCAR-8 ovarian, with MCF7 breast, with NCI/ADR-RES ovarian, in the experiment on HCT-15 colon, with NCI-H23 lung and in the experiment on RPMI-8226 leukemia was > 100 µM each time. In addition, the TGI with KM12 colon, in the experiment on MDA-MB-231 breast, in the experiment on HS 578T breast, in the experiment on HCT-116 colon and in the experiment on SN12C renal was > 100 µM throughout.
For the molecule `O=[N+]([O-])c1ccc(COc2cccc3cccnc23)cc1`, the TGI with OVCAR-3 ovarian was > 100 µM; with HOP-92 NSCLC, > 100 µM; in the experiment on HL-60(TB) leukemia, 22.3 µM; with NCI-H522 lung it was 19.4 µM; with OVCAR-5 ovarian it was > 100 µM; with SF-295 CNS, > 100 µM. The TGI with CCRF-CEM leukemia was 23.7 µM; in the experiment with OVCAR-8 ovarian, > 100 µM; in the experiment on HCT-15 colon it was 25.7 µM; with NCI-H23 lung, > 100 µM; in the experiment on RPMI-8226 leukemia, 39.2 µM; with KM12 colon, 96.5 µM. In addition, the TGI in the experiment on HCT-116 colon and in the experiment with SN12C renal was > 100 µM in each case.
In the case of `CN=C(NC)N(C)c1nc(=[N+](C)C)ss1`, the TGI with OVCAR-3 ovarian, in the experiment with HOP-92 NSCLC, with HL-60(TB) leukemia, in the experiment on NCI-H522 lung, in the experiment on OVCAR-5 ovarian and with SF-295 CNS was > 100 µM in each case. For the same molecule, the TGI in the experiment on CCRF-CEM leukemia, in the experiment on OVCAR-8 ovarian, in the experiment on HCT-15 colon, in the experiment on NCI-H23 lung, in the experiment on KM12 colon and with HCT-116 colon was > 100 µM in each case. For the same molecule, in the experiment with SN12C renal, the TGI is > 100 µM.
As for `S=C(c1c[nH]c2ccccc12)N1CCCCC1`, the TGI with OVCAR-3 ovarian, with HL-60(TB) leukemia, in the experiment with OVCAR-5 ovarian, in the experiment on SF-295 CNS, in the experiment with CCRF-CEM leukemia and in the experiment with OVCAR-8 ovarian was > 100 µM throughout. In addition, the TGI with MCF7 breast, with NCI/ADR-RES ovarian, with HCT-15 colon, in the experiment on NCI-H23 lung, in the experiment on RPMI-8226 leukemia and in the experiment on KM12 colon was > 100 µM each time. The TGI in the experiment with MDA-MB-231 breast, in the experiment with BT-549 breast, with HS 578T breast, in the experiment with HCT-116 colon and with SN12C renal was > 100 µM each time.
Turning to `COc1ccc2c(c1)CCN1C3=C(CCC3)C(=O)C[C@@H]21`, the TGI in the experiment with OVCAR-3 ovarian, in the experiment with HOP-92 NSCLC, in the experiment with HL-60(TB) leukemia, in the experiment on NCI-H522 lung, in the experiment with OVCAR-5 ovarian and in the experiment with SF-295 CNS was > 100 µM each time. Also, the TGI in the experiment on CCRF-CEM leukemia, with OVCAR-8 ovarian, with HCT-15 colon, in the experiment on NCI-H23 lung, in the experiment with RPMI-8226 leukemia and in the experiment with KM12 colon was > 100 µM throughout. The TGI with HCT-116 colon and in the experiment on SN12C renal was > 100 µM each time.
For `COc1cc(C(=O)OCCn2[nH]c(-c3ccc(Cl)cc3)nc2=S)cc(OC)c1OC`, the TGI is > 100 µM with OVCAR-3 ovarian; 95.2 µM with HOP-92 NSCLC; > 100 µM in the experiment with HL-60(TB) leukemia; > 100 µM in the experiment with NCI-H522 lung; > 100 µM in the experiment with OVCAR-5 ovarian; > 100 µM in the experiment on SF-295 CNS. Further, the TGI with CCRF-CEM leukemia, in the experiment with OVCAR-8 ovarian, in the experiment on MCF7 breast, with NCI/ADR-RES ovarian, in the experiment with HCT-15 colon and in the experiment with NCI-H23 lung was > 100 µM each time. For the same molecule, the TGI in the experiment with KM12 colon, with MDA-MB-231 breast, in the experiment on BT-549 breast, in the experiment on HS 578T breast, in the experiment with HCT-116 colon and in the experiment with SN12C renal was > 100 µM each time.
